Entries after “also recorded” stand apart in the source; their conditions may differ. Read-outs that look alike come from different tables or passages of the source. Bridges are numbered along the chain shown (N, C = ends). Where no end group is shown, it is not given here. [ ]: non-standard residue; d: D form. pY = N[C@@H](Cc1ccc(OP(=O)(O)O)cc1)C(=O)O
How the values were obtained:
[1] = Abltide motif OBOC library screening with MG before and after dephosphorylation; format: binding; details: for Post-dephos fluorescent signal: after dephosphorylation (treatment with 50% HF); for Pre-dephos fluorescent signal: before dephosphorylation; for ΔF/F: pre- vs post-dephosphorylation
From the text: Screening for Library category 2 (Table 2) necessitates that the entire OBOC bead library array be scanned with and without MG or other dyes, before and after PTM. Here, we will use c-src PTK as an example. We have previously reported the use of OBOC combichem and radiosubstrate screening method to identify an efficient and specific peptide substrate (YIYGSFK; SEQ ID NO:35) for c-src PTK. […] Recently, we prepared YIY(P)GSFKKKXn (SEQ ID NO:216) libraries (X=all 19 L-amino acids except Cys, n=6-9) and screened them against MG. After 1 hr incubation, near-infra-red image of the entire immobilized library was captured. The bead library was then thoroughly washed, and dephosphorylated with 50% HF. Beads that strongly fluoresce near infra-red before dephosphorylation but fluoresce weakly (or none) after dephosphorylation were selected as candidate GESIs for c-src PTK (Table 6). Of these 8 peptides isolated from screening ˜300,000 beads, 3 has 1 Trp, and the remaining 5 have no Trp. Work is currently underway to characterize their substrate efficiency and specificity biochemically in a cell-free system and subsequently inside living cells. In principle, using various dyes and PKs to screen OBOC libraries, we should be able to develop several GESIs against several PKs that can be multiplexed with different dyes in living cells. We have developed GESIs for one serine/threonine kinase (PKA), and two tyrosine kinases (c-src and bcr-abl). Very recently, we have designed another library with a c-abl motif (“Abltide”): EAIY(P)AAPFAKKXn (SEQ ID NO:217).
After screening about one million beads with MG, we identified four peptides that greatly activate MG in phosphorylated but not dephosphorylated form (Table 7). Photomicrograph of LLT4bead is shown in FIG. 21, with a marked decrease in fluorescent signal (relative arbitrary level of 1930 to 93 and a ΔF/F value of 19; see right columns of Table 7) after dephosphorylation (treatment with 50% HF). High consensus was observed. All 4 beads have a Tyr at X7, a negative-charged amino acid at X4, hydrophobic amino acids at X1, X6 and X8 (3 out 4 have Val at X6 and Tyr at X8). Three out four beads have a positive-charged amino acid at X2 position. To discover GESIs for PKA, we will include the known PKA substrate motif (RRX[S/T]; SEQ ID NO:223) into the OBOC libraries. In some libraries, the known kinase substrate motifs will be placed between two stretches of random residues. In some cases, we have found increased (instead of decrease) fluorescence after dephosphorylation. These peptides are potential leads for developing phosphatase sensors.

[2] = MG binding of peptide ligands from screening and their derivatives; design: key to MG binding: −: no binding; +: weak binding; ++: mild binding; +++: strong binding; ++++: very strong binding; details: for MG binding: 11 hour incubation with 5 μM MG in PBS buffer (pH 7.4); for MG binding of phosphorylated form (in words): phosphorylated but not unphosphorylated form
[3] = Sequential screening of PDMS affixed OBOC bead array with three dyes; format: binding; details: 100 μM dye in PBS, three dyes incubated sequentially on the same bead array
Procedure: Silicon Elastomer Base was mixed completely with Silicone Elastomer Curing Agent at ratio 10:1 in volume and the solution was kept in vacuum container for 15 to 20 minutes to eliminate the gas bubbles formed during the mixing process. After the removal of all residual bubbles, approximately 0.5-1 mL of PDMS solution was added into the bottom of a 60 mm culture dish. The dish was then spun on a single wafer spin processor (Laurell Technologies Corporation®, model WS-6505-6NPP/Lite) to evenly distribute the solution over the plates, at a speed of 4000 rpm for 30 s. A 5 μm layer of PDMS was formed on the bottom of dish and was cured at 80° C. for 5 min or at room temperature for 24 hrs to allow for beads immobilization. Knowing that the PDMS coating was about 5 μm thick and the radius of bead was around 45 μm, the percentage of free bead surface area was estimated by the formula of [1-2πrh/4πr^2]×100% (h=thickness of PDMS layer; r=radius of bead) to be approximately 95%. The library beads resuspended in 70% ethanol solution were first randomly placed on the surface of a glass plate that was 10% smaller than the dish used in the experiment. After the ethanol evaporated, a syringe needle was used to adjust the dry beads to evenly redistribute beads on the glass surface. Then the dish was inverted and the PDMS layer was pressed down onto the glass plate with beads. The library beads were embedded partly inside the PDMS layer.
Dye solutions were prepared in PBS to a 100 μM final concentration and 5 mL of each dye solution were added into the 60 mm dish with beads. Three dyes were tested sequentially. The dish was kept swirling at 60 rpm on the rotator. The dye binding was monitored for 90 minutes, and then the dye solution was removed from the dishes and PBS was added to rinse the beads on the bottom to remove the color dye. The PBS solution was changed every 30 min and the dish was always swirled as above. The beads color change was also observed and recorded at certain time interval during the whole wash process to collect data of color dissociation. Before adding the next dye solution, beads were washed with 70% ethanol to completely remove residual dye and were rinsed with PBS solution three times afterwards.
A representative positive bead for each color was selected for the color binding and dissociation study. A series of images were taken at different time points during the binding and washing process. From the images taken, regions of interest (ROI) with the same size were picked up from the color beads and colorless control beads. The value from the control bead was subtracted from the color bead to get quantitated color value for each single color bead. The measure of the color intensity for each color dye was performed using the Kodak Image Station 2000MM.
The PDMS affixed bead array was incubated with three different dyes sequentially. […] Eleven beads were selected for further analysis based on their characteristic binding profiles (FIG. 2). […] The amino acid sequences of the peptides bound to the beads were determined (Table 1).

[4] = Fluorescence titration of peptide in solution with MG, 2 mM Ca2+, 650 nm; format: binding
Procedure: Two peptides that can activate MG with or without calcium sensitivity were selected for further characterization. A solution form of the two peptides were synthesized and titrated with MG in the presence of 2 mM Ca^2+. Fluorescent signal at 650 nm was measured. […] Computational modeling confirmed stably folded structure of peptide 12 upon MG binding, preventing intramolecular motions of MG (FIG. 8B, FIG. 10A, B). […] The immobilized peptides on TentaGel beads were then titrated with an increasing amount of MG in the presence and absence of 2 mM Ca^2+. Fluorescent emission at 650 nm by each individual bead was measured. […] Computational modeling further confirmed that stably folded structure of peptide 2 only forms upon calcium binding (FIG. 11B).

Question: Which Post-dephos fluorescent signal [1] does the source give for “EAIY(P)AAPFAKKYYVYDMHI (EAI[pY]AAPFAKKYYVYDMHI) [LLT1]” here?
Answer: 72 relative arbitrary level

Question: And the Pre-dephos fluorescent signal [1]?
Answer: 939 relative arbitrary level

Question: What about the ΔF/F [1] of the same substance?
Answer: 12

Question: With “3-P (DNYIYGSFKPWEWC; synthetic genetically encoded small illuminant (GESI) malachite green (MG) binding peptide 3-P from linear library L-1)” as the substance, how does the MG binding [2] read?
Answer: ++

Question: With “2C (CDVYI[pY]GSFKNDYIC; disulfide 1-15 (inferred)) [Peptide 2C]” as the substance, how does the MG binding [2] read?
Answer: ++++

Question: For “3C (CDNYI[pY]GSFKNPWEWC; disulfide 1-16 (inferred)) [Peptide 3C]”, which MG binding [2] is on record?
Answer: ++++

Question: With “CEIHRIC (synthetic genetically encoded small illuminant (GESI) peptide of bead #9)” as the substance, how does the Dye binding ([3]; listed as # 9) read?
Answer: Bromocresol

Question: What about the Dye binding ([3]; listed as #9) of the same substance?
Answer: only bind to bromocresol purple; also recorded: bind only to bromocresol purple

Question: What does the source list for DWWDWGNHGYTE [Peptide 12]?
Answer: Binding characteristics in solution studies [4]: strong binding characteristics; Kd ([4]; binding to MG, read-out: binding affinity): 0.41 nM; Kd ([4]; peptide in solution, 2 mM Ca2+, one-site specific binding, read-out: Kd): ~0.41 nM

Question: For “EAIY(P)AAPFAKKYYVQDSRA (EAI[pY]AAPFAKKYYVQDSRA) [LLT2]”, which Post-dephos fluorescent signal [1] is on record?
Answer: 44 relative arbitrary level

Question: And the Pre-dephos fluorescent signal [1]?
Answer: 575 relative arbitrary level

Question: What about the ΔF/F [1] of the same substance?
Answer: 12

Question: Which results are given for “EAIY(P)AAPFAKKYYVSERKW (EAI[pY]AAPFAKKYYVSERKW) [LLT3]”?
Answer: Post-dephos fluorescent signal [1]: 63 relative arbitrary level; Pre-dephos fluorescent signal [1]: 835 relative arbitrary level; ΔF/F [1]: 12

Question: For “CLSDEFC (not fully specified (bridges); cysteine pairing not given here; also: bead-bound) [Bead #11]”, which Dye binding ([3]; listed as # 11) is on record?
Answer: Malachite green

Question: What about the Dye binding ([3]; listed as #11) of the same substance?
Answer: only bind to malachite green; also recorded: bind only to malachite green

Question: For “1C (CDDYI[pY]GSFKPYIAC; disulfide 1-15 (inferred)) [Peptide 1C]”, which MG binding [2] is on record?
Answer: ++++

Question: Which results are given for “DSDSWGEYFHEE (synthetic genetically encoded small illuminant (GESI) malachite green (MG) binding Peptide 4)”?
Answer: MG binding [2]: ++; MG binding of phosphorylated form (in words) [2]: bound MG

Question: For “DFMRQGVYDIPE (synthetic genetically encoded small illuminant (GESI) malachite green (MG) binding Peptide 5)”, which MG binding [2] is on record?
Answer: ++

Question: What about the “MG binding of phosphorylated form (in words)” value [2] of the same substance?
Answer: bound MG

Question: For “DILDDGDEIQGE (synthetic genetically encoded small illuminant (GESI) malachite green (MG) binding Peptide 1)”, which MG binding [2] is on record?
Answer: +

Question: And the “MG binding of phosphorylated form (in words)” value [2]?
Answer: bound MG

Question: With “CHPLLPC (not fully specified (bridges); cysteine pairing not given here; also: bead-bound) [Bead #5]” as the substance, how does the Dye binding ([3]; listed as # 5) read?
Answer: Bromocresol

Question: What about the Dye binding ([3]; listed as #5) of the same substance?
Answer: only bind to bromocresol purple; also recorded: bind only to bromocresol purple

Question: For “CQPDLTC (not fully specified (bridges); cysteine pairing not given here; also: bead-bound) [Bead #3]”, which Dye binding ([3]; listed as # 3) is on record?
Answer: Malachite green

Question: And the Dye binding ([3]; listed as #3)?
Answer: only bind to malachite green; also recorded: bind only to malachite green

Question: For “CLMNKWC (not fully specified (bridges); cysteine pairing not given here; also: bead-bound) [Bead #2]”, which Dye binding ([3]; listed as #2) is on record?
Answer: bind to both indigo carmine and bromocresol purple

Question: Which results are given for “CGNTEPC (synthetic genetically encoded small illuminant (GESI) peptide of bead #6)”?
Answer: Dye binding ([3]; listed as # 6): Malachite green; Dye binding ([3]; listed as #6): only bind to malachite green; also recorded: bind only to malachite green

Question: With “CYKWWVC (synthetic genetically encoded small illuminant (GESI) peptide of bead #7)” as the substance, how does the Dye binding ([3]; listed as #7) read?
Answer: bind to both indigo carmine and bromocresol purple

Question: With “DRDGDGDHRKIE (synthetic genetically encoded small illuminant (GESI) malachite green (MG) binding Peptide 3)” as the substance, how does the MG binding [2] read?
Answer: +++

Question: Which Dye binding ([3]; listed as # 8) does the source give for “CMTQEAC (synthetic genetically encoded small illuminant (GESI) peptide of bead #8)” here?
Answer: Malachite green

Question: And the Dye binding ([3]; listed as #8)?
Answer: only bind to malachite green; also recorded: bind only to malachite green

Question: With “EAIY(P)AAPFAKKLYIMDGWF (EAI[pY]AAPFAKKLYIMDGWF) [LLT4]” as the substance, how does the Post-dephos fluorescent signal [1] read?
Answer: 93 relative arbitrary level

Question: And the Pre-dephos fluorescent signal [1]?
Answer: 1930 relative arbitrary level

Question: And the ΔF/F [1]?
Answer: 19

Question: Which MG binding [2] does the source give for “4C (CDVYI[pY]GSFKYWPAC; disulfide 1-15 (inferred)) [Peptide 4C]” here?
Answer: ++++

Question: For “5C (CDTYI[pY]GSFKVNPDC; disulfide 1-15 (inferred)) [Peptide 5C]”, which MG binding [2] is on record?
Answer: +++

Source: patent publication US10598667B2, “Functional illumination in living cells” (The Regents of the University of California, priority 2013, dated 2020)
